Measurements reported in article PMC9011347, “Small-Molecule Inhibitors Targeting Lipolysis in Human Adipocytes” (Journal of the American Chemical Society, 2022).

Test system: primary human adipocytes
Assay: Lipolysis in primary human adipocytes
Type: cell-based
Description: Figure 3 NG-497 inhibits lipolysis in human SGBS and primary human adipocytes. SGBS adipocytes were preincubated with NG-497 for 1 h at the indicated concentrations. Subsequently, lipolysis was stimulated with isoproterenol (1 μM) and (a) FA and (b) glycerol release was determined after 1 h using commercial kits. (c) Dose-dependent inhibition of isoproterenol-stimulated FA release from SGBS adipocytes by the HSL inhibitor 76-068 (HSLi). […] (e) DAG accumulation in SGBS adipocytes was analyzed by thin-layer chromatography (TLC) following 1 h incubation with HSLi (25 μM), NG-497 (40 μM), and a combination of both inhibitors. […] Subsequently, basal and Forskolin (5 μM)-stimulated release of radioactivity was determined via liquid scintillation over a period of 2 h in the presence or absence of NG-497 (40 μM). FA release was calculated based on FA concentrations in conditioned media after 2 h as determined using a commercial kit. […] Subsequently, the medium was changed and FA release was monitored over a period of 3 h under the indicated conditions. […] Statistical significance was determined via ANOVA followed by Bonferroni post hoc test (^#p < 0.05; ^##p < 0.01; ^###p < 0.001). […]
Released free fatty acids were quantified via NEFA C kit (Fujifilm Wako Chemicals, Neuss, Germany) and release of p-nitrophenol was measured at 405 nm. […]

Structure (SMILES): CCOc1ccc(-c2cc(OC)cc(C(=O)OC(C)C)n2)cc1 [NG-497]
- activity at 40 µM (Homo sapiens, Adipocyte, primary adipocytes, 1 h preincubation with NG-497 40 μM, within the third hour after pretreatment, read-out: lipolytic activity regained after inhibitor removal): ~40%
- Forskolin-induced FA release (primary human adipocytes, NG-497 40 μM, Forskolin 5 μM, 2 h, [9,10-3H] oleic acid label): diminished Forskolin-induced FA release to basal level
